Experimental data from patent US20250144067A1, “PERSONALIZED STARVATION THERAPY FOR CANCER” (Faeth Therapeutics, Inc., priority 2021, published 2025).
Where a name gives a salt, the structure may show the parent alone.

What was measured:
[1] = system: NCI-H292 lung cancer cells; test: FDA drug screening, complete media vs cholesterol-free media without statin (TABLE 1); format: cell-based, human
[2] = system: NCI-H292 lung cancer cells; test: FDA drug screening, complete media vs cholesterol-free media with simvastatin (TABLE 2); format: cell-based, human; conditions: for Cholesterol-free media + simvastatin (0.04 μM) / Complete Media: NCI-H292 cells
[3] = Complete minus Cholesterol-free, >0 enhanced anti-cancer activity, about 0 neutral, <0 antagonist
[4] = NCI-H292 cells, cholesterol-free media without statin
[5] = cholesterol-free media with simvastatin 0.04 μM, FDA drug library screen (TABLE 2)
[6] = complete media, FDA drug library screen (TABLE 2)
[7] = complete media minus cholesterol-free media + simvastatin (0.04 μM), >0 enhanced anti-cancer activity, about 0 neutral, <0 antagonist
[8] = Complete minus Cholesterol-free, greater than 0 enhanced anti-cancer activity, about 0 neutral, below 0 antagonist
[9] = NCI-H292 cells, FDA drug library screen, cholesterol-free media without statin
[10] = NCI-H292 cells, FDA drug library screen, complete media
[11] = cholesterol-free media with simvastatin 0.04 μM, cell growth value in FDA drug screen
[12] = complete media, cell growth value in FDA drug screen
[13] = complete media minus cholesterol-free media + simvastatin, >0 enhanced anti-cancer activity, about 0 neutral, <0 antagonist
[14] = FDA library drug in cholesterol-free media with simvastatin 0.04 μM
[15] = FDA library drug in complete media
[16] = complete media vs cholesterol-free media + simvastatin (0.04 μM), >0 enhanced anti-cancer activity, about 0 neutral, <0 antagonist
[17] = NCI-H292 cells, cholesterol-free media without statin, FDA drug library screen
[18] = NCI-H292 cells, complete media, FDA drug library screen
[19] = complete vs cholesterol-free media, >0 enhanced anti-cancer activity, about 0 neutral, <0 antagonist
[20] = Complete minus Cholesterol-free, […]
[21] = Complete minus Cholesterol-free, greater than 0 enhanced anti-cancer activity, about 0 neutral, below 0 antagonists
[22] = NCI-H292 cells in cholesterol-free media without statin
[23] = NCI-H292 cells in complete media
[24] = FDA drug library screen, cholesterol-free media with simvastatin 0.04 μM
[25] = FDA drug library screen, complete media
[26] = complete vs cholesterol-free media, greater than 0 enhanced anti-cancer activity, about 0 neutral, below 0 antagonists

## CNC[C@H](O)[C@@H](O)[C@H](O)[C@H](O)CO [Meglumine]
[1]; [3]
  Difference: −0.26
[1]; [4]
  Cholesterol-free: 1.228
[1]; NCI-H292 cells, complete media
  Complete: 0.9693
[2]; [5]
  Cholesterol-free media + simvastatin (0.04 μM): 1.358
[2]; [6]
  Complete Media: 1.305
[2]; [7]
  Difference: −0.05

## OC[C@H]1O[C@@H](O[C@@H]2[C@@H](CO)OC(O)(CO)[C@H]2O)[C@H](O)[C@@H](O)[C@H]1O (mixture of isomers) [Lactulose]
[1]; [8]
  Difference: −0.16
[1]; [9]
  Cholesterol-free: 1.109
[1]; [10]
  Complete: 0.9456
[2]; [11]
  Cholesterol-free media + simvastatin (0.04 μM): 0.7227
[2]; [12]
  Complete Media: 0.8015
[2]; [13]
  Difference: 0.08

## CCCCCCCC(=O)N[C@H](CN1CCCC1)[C@H](O)c1ccc2c(c1)OCCO2 [Eliglustat]
[1]; [3]
  Difference: −0.30
[1]; [4]
  Cholesterol-free: 1.155
[1]; NCI-H292 cells, complete media
  Complete: 0.8552
[2]; [14]
  Cholesterol-free media + simvastatin (0.04 μM): 1.086
[2]; [15]
  Complete Media: 0.6384
[2]; [16]
  Difference: −0.45

## CC(=O)NS(=O)(=O)c1ccc(NC(=O)c2ccccc2C(=O)O)cc1 [Phthalylsulfacetamide]
[1]; [3]
  Difference: −0.29
[1]; [4]
  Cholesterol-free: 1.274
[1]; NCI-H292 cells, complete media
  Complete: 0.9792
[2]; [14]
  Cholesterol-free media + simvastatin (0.04 μM): 1.031
[2]; [15]
  Complete Media: 0.7098
[2]; [16]
  Difference: −0.32

## O=C(O)Cc1ccc(-c2ccccc2)cc1 [Felbinac]
[1]; [17]
  Cholesterol-free: 0.7335
[1]; [18]
  Complete: 1.335
[1]; [19]
  Difference: 0.60
[2]; [5]
  Cholesterol-free media + simvastatin (0.04 μM): 1.215
[2]; [6]
  Complete Media: 1.199
[2]; [7]
  Difference: −0.02

## CC[C@H]1[C@@H]2C[C@H]3[C@@H]4N(C)c5ccccc5[C@]45C[C@@H]([C@H]2[C@H]5O)N3[C@@H]1O [Ajmaline]
[1]; [20]
  Difference: −0.16
[1]; [9]
  Cholesterol-free: 1.107
[1]; [10]
  Complete: 0.943
[2]; [5]
  Cholesterol-free media + simvastatin (0.04 μM): 1.33
[2]; [6]
  Complete Media: 1.333
[2]; complete media minus cholesterol-free media + simvastatin (0.04 μM), […]
  Difference: 0.00

## CNCC[C@@H](Oc1ccccc1C)c1ccccc1 [Atomoxetine (hydrochloride)]
[1]; [21]
  Difference: −0.68
[1]; [22]
  Cholesterol-free: 1.663
[1]; [23]
  Complete: 0.988
[2]; [11]
  Cholesterol-free media + simvastatin (0.04 μM): 1.776
[2]; [12]
  Complete Media: 1.803
[2]; [13]
  Difference: 0.03

## CC1=NN(c2ccc(C)c(C)c2)C(=O)/C1=N\Nc1cccc(-c2cccc(C(=O)O)c2)c1O [Eltrombopag]
[1]; [3]
  Difference: −0.30
[1]; [4]
  Cholesterol-free: 1.47
[2]; [24]
  Cholesterol-free media + simvastatin (0.04 μM): 1.011
[2]; [25]
  Complete Media: 0.868
[2]; [16]
  Difference: −0.14

## CC(C[N+](C)(C)C)OC(N)=O.[Cl-] (stereo not drawn) [Bethanechol (chloride)]
[1]; [17]
  Cholesterol-free: 1.24
[1]; [18]
  Complete: 1.407
[1]; [19]
  Difference: 0.17
[2]; [14]
  Cholesterol-free media + simvastatin (0.04 μM): 1.34
[2]; [15]
  Complete Media: 0.9882
[2]; [16]
  Difference: −0.35

## COC1=CC(=O)OC(/C=C/c2ccccc2)C1 (single isomer, unassigned; (+)) [(+)-Kavain]
[1]; [20]
  Difference: −0.08
[1]; [9]
  Cholesterol-free: 1.138
[1]; [10]
  Complete: 1.054
[2]; cholesterol-free media with simvastatin 0.04 μM, […]
  Cholesterol-free media + simvastatin (0.04 μM): 1.009
[2]; complete media, […]
  Complete Media: 1.093
[2]; complete media minus cholesterol-free media + simvastatin, […]
  Difference: 0.08

## CN(C)CCCN1c2ccccc2CCc2ccccc21 [Imipramine (hydrochloride)]
[1]; [3]
  Difference: −0.21
[1]; [4]
  Cholesterol-free: 1.052
[1]; NCI-H292 cells, complete media
  Complete: 0.8395
[2]; [24]
  Cholesterol-free media + simvastatin (0.04 μM): 0.9417
[2]; [25]
  Complete Media: 0.8694
[2]; [16]
  Difference: −0.07

## O=[N+]([O-])c1ccc(O)c2ncccc12 [Nitroxoline]
[1]; [17]
  Cholesterol-free: 0.8448
[1]; [18]
  Complete: 1.027
[1]; [19]
  Difference: 0.18
[2]; [24]
  Cholesterol-free media + simvastatin (0.04 μM): 1.871
[2]; [25]
  Complete Media: 1.743
[2]; [16]
  Difference: −0.13

## CC(CCc1ccccc1)NC(C)C(O)c1ccc(O)cc1 (stereo not drawn) [Nylidrin (hydrochloride)]
[1]; [21]
  Difference: −0.53
[1]; [22]
  Cholesterol-free: 1.455
[1]; [23]
  Complete: 0.9273
[2]; [24]
  Cholesterol-free media + simvastatin (0.04 μM): 0.6926
[2]; [25]
  Complete Media: 0.8576
[2]; [13]
  Difference: 0.17

## CCCCC(CC)COC(=O)C(C#N)=C(c1ccccc1)c1ccccc1 (stereo not drawn) [Octocrylene]
[1]; [21]
  Difference: −0.58
[1]; [22]
  Cholesterol-free: 1.541
[1]; [23]
  Complete: 0.9621
[2]; [24]
  Cholesterol-free media + simvastatin (0.04 μM): 1.183
[2]; [25]
  Complete Media: 1.029
[2]; [16]
  Difference: −0.15

## Diethylcarbamazine (citrate)
[1]; [4]
  Cholesterol-free: 1.324
[1]; NCI-H292 cells, complete media
  Complete: 0.9451
[1]; [26]
  Difference: −0.38
[2]; [11]
  Cholesterol-free media + simvastatin (0.04 μM): 0.703
[2]; [12]
  Complete Media: 0.7247
[2]; [13]
  Difference: 0.02

## Cc1ccc(Nc2nccc(N(C)c3ccc4c(C)n(C)nc4c3)n2)cc1S(N)(=O)=O [Pazopanib]
[1]; [3]
  Difference: 0.02
[1]; [17]
  Cholesterol-free: 1.084
[1]; [18]
  Complete: 1.105
[2]; [24]
  Cholesterol-free media + simvastatin (0.04 μM): 1.156
[2]; [25]
  Complete Media: 1.457
[2]; [13]
  Difference: 0.30

## CC1=C(C(=O)O)N2C(=O)[C@@H](NC(=O)[C@H](N)c3ccccc3)[C@H]2SC1 [Cephalexin (monohydrate)]
[1]; [4]
  Cholesterol-free: 1.506
[1]; NCI-H292 cells, complete media
  Complete: 1.062
[1]; [26]
  Difference: −0.44
[2]; [14]
  Cholesterol-free media + simvastatin (0.04 μM): 1.59
[2]; [15]
  Complete Media: 0.9161
[2]; [16]
  Difference: −0.67

## Delavirdine (mesylate)
[1]; [8]
  Difference: −0.10
[1]; [9]
  Cholesterol-free: 1.071
[1]; [10]
  Complete: 0.9729
[2]; [11]
  Cholesterol-free media + simvastatin (0.04 μM): 0.9532
[2]; [13]
  Difference: 0.08

## CCC(=O)O[C@]1(C(=O)SCF)[C@H](C)C[C@H]2[C@@H]3C[C@H](F)C4=CC(=O)C=C[C@]4(C)[C@@]3(F)[C@@H](O)C[C@@]21C [Fluticasone (propionate)]
[1]; [21]
  Difference: −0.60
[1]; [22]
  Cholesterol-free: 1.466
[1]; [23]
  Complete: 0.8611
[2]; [24]
  Cholesterol-free media + simvastatin (0.04 μM): 0.7423
[2]; [25]
  Complete Media: 0.6072
[2]; [16]
  Difference: −0.14

## C=CCC(C(=O)NC(N)=O)C(C)C (stereo not drawn) [Apronal]
[1]; [17]
  Cholesterol-free: 1.287
[1]; [18]
  Complete: 1.458
[1]; complete vs cholesterol-free media, […]
  Difference: 0.17
[2]; drug in cholesterol-free media with simvastatin 0.04 μM
  Cholesterol-free media + simvastatin (0.04 μM): 1.688
[2]; drug in complete media
  Complete Media: 1.479
[2]; complete media vs cholesterol-free media + simvastatin (0.04 μM), […]
  Difference: −0.21

## CCOc1ccccc1C(N)=O [2-Ethoxybenzamide]
[1]; [3]
  Difference: −0.07
[1]; [17]
  Cholesterol-free: 1.024
[1]; [18]
  Complete: 0.9559
[2]; [24]
  Cholesterol-free media + simvastatin (0.04 μM): 1.119
[2]; [25]
  Complete Media: 0.9754
[2]; [16]
  Difference: −0.14

## C#CCN(C)Cc1ccccc1 [Pargyline (hydrochloride)]
[1]; [4]
  Cholesterol-free: 1.204
[1]; NCI-H292 cells, complete media
  Complete: 0.7875
[1]; [26]
  Difference: −0.42
[2]; [5]
  Cholesterol-free media + simvastatin (0.04 μM): 0.8767
[2]; [6]
  Complete Media: 0.8243
[2]; [7]
  Difference: −0.05

## N[C@@H](CS)C(=O)O [L-Cysteine]
[1]; [3]
  Difference: −0.21
[1]; NCI-H292 cells, complete media
  Complete: 0.7323
[2]; [5]
  Cholesterol-free media + simvastatin (0.04 μM): 1.471
[2]; [6]
  Complete Media: 1.439
[2]; [7]
  Difference: −0.03
